In data set [1] the test system is patients with mild to moderate hypertension. The data set can be described thus: Example 19 clinical study: eplerenone versus placebo co-administered with a calcium-channel blocker. It is filed as in vivo, human.
Excerpt: This multicenter, randomized, double-blind, placebo-controlled, placebo run-in, parallel group trial involving a minimum of 120 randomized patients with hypertension (seated diastolic blood pressure [seDBP]≧95 mmHg and <110 mmHg and seated systolic BP [seSBP]<180 mmHg while taking a CCB) will consist of a one- to two-week pretreatment screening period followed by a two- to four-week single-blind placebo run-in period and an 8-week double-blind treatment period. Eligible patients will be patients currently receiving a CCB as part of their antihypertensive medication. […] The dose will not be changed for patients with adequate BP control. […] If the dose has been increased at Week 2, the patient will be reassessed at Week 6. […] If BP is uncontrolled at Week 6 and the dose has been increased at Week 2 or Week 4, the patient must be withdrawn from the study. If symptomatic hypotension (i.e., lightheadedness, dizziness, or syncope associated with low BP) occurs at any time during the study, or if DBP is ≧110 mmHg or SBP is ≧180 mmHg at any time during the trial, the patient must be withdrawn. Patients will receive study medication for a total of 8 weeks.
Patients will return to the clinic for evaluations at Weeks 0 (baseline), 2, 4, 6, 8, and 9. Heart rate, BP, adverse events and concomitant medication will be assessed at each visit. Hematology and biochemistry evaluations and urinalysis for safety will be at Weeks 0, 8, and 9. Serum potassium levels will be determined at Weeks 0 (baseline), 2, 4, 6, 8, and 9. Plasma renin, serum aldosterone, and plasma cortisol will be determined at Weeks 0 and 8. A 12-lead electrocardiogram and physical examination will be done at screening and at Week 9.
The study will consist of a one- to two-week pretreatment screening period followed by a two- to four-week single-blind placebo run-in treatment period, prior to randomization to an eight-week double-blind treatment period.
Eligible patients will be either currently receiving a CCB alone, or receiving a CCB as part of their antihypertensive medication. […] The dose will not be changed for patients with adequate BP control. […] If the dose has been increased at Week 2, the patient will be reassessed at Week-6. The dose of study medication will not be changed for patients with adequate BP control. […] If BP is uncontrolled at Week 6 and the dose has been increased at Week 2 or Week 4, the patient must be withdrawn from the study. The dose of study medication will not be changed for patients with adequate BP control. If symptomatic hypotension (i.e., lightheadedness, dizziness, or syncope associated with low BP) occurs at any time during the study, or if DBP is ≧110 mmHg or SBP is ≧180 mmHg at any time during the study, the patient must be withdrawn. Patients will receive study medication for a total of eight weeks.
Patients will return to the clinic for evaluations at Weeks 0, 2, 4, 6, 8, and 9. Heart rate, BP, adverse events and concomitant medication will be assessed at each visit. Hematology and biochemistry evaluations and urinalysis for safety will be at Weeks 0, 8, and 9. Serum potassium levels will be determined at Weeks 0, 2, 4, 6, 8, and 9. Plasma renin, serum aldosterone, and plasma cortisol will be determined at Weeks 0 and 8. […]
BP evaluations will be analyzed at each visit using two-way analysis of covariance (ANCOVA) with the baseline measurement as the covariate and treatment and center as factors. […]
A further data set deals with hypertensive rats. As to the kind of experiment: Assay C: hypertensive rat model (renal artery clip). It is filed as in vivo. Conditions: combination of beta-adrenergic antagonist and eplerenone versus either component alone, after 12 to 24 weeks. An excerpt:
Assay “C”: Hypertensive Rat Model Male rats are made hypertensive by placing a silver clip with an aperture of 240 microns on the left renal artery, leaving the contralateral kidney untouched. Sham controls undergo the same procedure but without attachment of the clip. One week prior to the surgery, animals to be made hypertensive are divided into separate groups and drug treatment is begun. […] After 12 to 24 weeks, systolic and diastolic blood pressure, left ventricular end diastolic pressure, left ventricular dP/dt, and heart rate are evaluated. The hearts are removed, weight, measured and fixed in formalin. Collagen content of heart sections are evaluated using computerized image analysis of picrosirius stained sections.

In data set [2] the test system is rats with coronary artery ligation. The data set can be described thus: Assay D: myocardial infarction rat model. The following applies: combination of beta-adrenergic antagonist and eplerenone versus either component alone, after six weeks. It is filed as in vivo. An excerpt:
Assay “D” Myocardial Infarction Rat Model: male rats are anesthetized and the heart is exteriorized following a left sided thoracotomy. The left anterior descending coronary artery is ligated with a suture. The thorax is closed and the animal recovers. Sham animals have the suture passed through without ligation. One week prior to the surgery, animals to undergo infraction are divided into separate groups and drug treatment is begun. […] After six weeks, systolic and diastolic blood pressure, left ventricular end diastolic pressure, left ventricular dP/dt, and heart rate are evaluated. The hearts are removed, weight, measured and fixed in formalin. Collagen content of heart sections are evaluated using computerized image analysis of picrosirius stained sections.

A further data set relates to animal models. The following applies: cited from earlier work.
The mark [3] stands for this setting: eplerenone plus CCB compared to CCB and placebo.

`COC(=O)[C@@H]1CC2=CC(=O)CC[C@]2(C)[C@@]23O[C@@H]2C[C@@]2(C)[C@@H](CC[C@@]24CCC(=O)O4)[C@H]13` [eplerenone, Pregn-4-ene-7,21-dicarboxylic acid, 9,11-epoxy-17-hydroxy-3-oxo-,γ-lactone, methyl ester, (7α,11α,17β)-]: the systolic blood pressure entry in data set [1] (eplerenone 50-100 mg plus fixed dose CCB versus CCB plus placebo, eight weeks) was “significant reduction”. The serious adverse events entry in data set [1] (eplerenone added to CCB therapy) is listed as “no serious adverse events”. Further, the active renin levels result in data set [1] (setting [3]) is given as “greater increase”. In addition, in data set [1] (setting [3]), the aldosterone levels result is “greater increase”. In addition, in data set [1] (eplerenone plus CCB versus CCB plus placebo, eight weeks), the “change in mean diastolic blood pressure” value was “greater for the dual therapy group, compared to monotherapy, but this difference did not reach statistical significance”. The cardiac performance result (with hypertensive rats; in data set [2]) was “improvements in cardiac performance” each time.

With `CC(=O)S[C@@H]1CC2=CC(=O)CC[C@]2(C)[C@H]2CC[C@@]3(C)[C@@H](CC[C@@]34CCC(=O)O4)[C@H]12` [spironolactone], the myocardial fibrosis result in the data set on animal models (D. Klug et al 1993) is “prevents myocardial fibrosis”. For the same molecule, the fibrosis result in the data set on animal models (irrespective of left ventricular hypertrophy and hypertension, C. G. Brilla et al 1993) is listed as “prevent fibrosis”.

Values taken from patent US20040235809A1, “Epoxy steroidal aldosterone antagonist and beta-adremergic antagonist combination therepy for treatment of congestive heart failure” (priority 2000, published 2004).
